For experiment [1], the target named is T1, human recombinant PDE10A2 (Homo sapiens, UniProt Q9Y233).
T1 construct: These compounds were tested against recombinant human full-length isoenzyme PDE10A; purchased Calbiochem 524739
Kind of experiment: Radiometric phosphodiesterase inhibition assay (SPA, [3H]cAMP). In kind it is biochemical. The conditions noted are these: for IC50: recombinant human full-length PDE10A; for inhibition at 10 µM: fixed compound concentration of 10 µM, read-out: percentage of inhibition of PDE10A. The protocol:
The methodology used for measuring human recombinant PDE10A2 activity was based in a Scintillation Proximity Assay (SPA) from Perkin Elmer (TRKQ7090).
After the incubation time, 50 µL of a solution of SPA-beads (approximately 1 mg per well) were added to each well and the plate was shaken for 1 h at room temperature. Finally, beads were settled for 30 min and radioactivity was detected in a Microbeta Trilux reader (Perkin Elmer, Shelton, CT, USA).
IC50 values were calculated by non-linear regression fitting using the GraphPad Prism. Data (radioactivity vs. log concentration) was fitted to a sigmoidal dose-response equation: Y = Bottom + (Top-Bottom)/(1 + 10^[…]), where Bottom and Top were the minimum and maximal inhibition for PDE, respectively, IC50 was the concentration of the compound that inhibited the PDE activity in a 50%, and n was the slope of the concentration-response curve.

The test system of experiment [2] is Raw 264.7 cells. The experiment is described as follows: Inhibition of nitrite production in LPS-stimulated murine macrophages (Griess reaction). The class given is cell-based. As to conditions: inhibitors 10 μM, 1 h pretreatment, LPS 10 μg mL−1, 24 h, versus LPS-treated cells. The text has this: Finally, to explore the anti-inflammatory potential of the new allosteric PDE10A inhibitors here described, a cell-based assay was used. We have determined differences in nitrite production of Raw 264.7 cells after they were damaged with bacterial lipopolysaccharide (LPS) and treated with selected inhibitors. First, the effect of the compounds on cell viability was examined at various concentrations showing […] significant cytotoxic effect in the present experiments (data not shown).
Figure 4 Raw 264.7 cells were incubated for 24 h with lipopolysaccharide (LPS; 10 μg mL^−1) in the absence or presence of various Phosphodiesterase (PDE) inhibitors (10 μM), and the production of nitrite was evaluated by the Griess reaction. Cells were pretreated with inhibitors for 1 h before lipopolysaccharide (LPS) stimulation. Values represent the mean ± SD from two independent experiments. *: p < 0.05; **: p < 0.01 versus LPS-treated cells.
The content of nitrite, one of the end products of NO oxidation, was monitored by a procedure based on the diazotidation of nitrite by sulfanilic acid (Griess reaction). […] The absorbance (520 nm) of the mixture was measured on a microplate reader. The concentration of nitrite was calculated with the linear equation derived from the standard curve generated by known concentrations of sodium nitrite.
For orientation: Griess reagent forms a coloured azo dye with nitrite.

For experiment [3], the system named is PDE10A. More on the design: method as in PMID 21705115. The conditions noted are these: reference compound; cited from earlier work.

We go through 17 compounds from publication PMC6151459, “Targeting PDE10A GAF Domain with Small Molecules: A Way for Allosteric Modulation with Anti-Inflammatory Effects” (Molecules : A Journal of Synthetic Chemistry and Natural …, 2017).

T1 sequence (Q9Y233 267-1055): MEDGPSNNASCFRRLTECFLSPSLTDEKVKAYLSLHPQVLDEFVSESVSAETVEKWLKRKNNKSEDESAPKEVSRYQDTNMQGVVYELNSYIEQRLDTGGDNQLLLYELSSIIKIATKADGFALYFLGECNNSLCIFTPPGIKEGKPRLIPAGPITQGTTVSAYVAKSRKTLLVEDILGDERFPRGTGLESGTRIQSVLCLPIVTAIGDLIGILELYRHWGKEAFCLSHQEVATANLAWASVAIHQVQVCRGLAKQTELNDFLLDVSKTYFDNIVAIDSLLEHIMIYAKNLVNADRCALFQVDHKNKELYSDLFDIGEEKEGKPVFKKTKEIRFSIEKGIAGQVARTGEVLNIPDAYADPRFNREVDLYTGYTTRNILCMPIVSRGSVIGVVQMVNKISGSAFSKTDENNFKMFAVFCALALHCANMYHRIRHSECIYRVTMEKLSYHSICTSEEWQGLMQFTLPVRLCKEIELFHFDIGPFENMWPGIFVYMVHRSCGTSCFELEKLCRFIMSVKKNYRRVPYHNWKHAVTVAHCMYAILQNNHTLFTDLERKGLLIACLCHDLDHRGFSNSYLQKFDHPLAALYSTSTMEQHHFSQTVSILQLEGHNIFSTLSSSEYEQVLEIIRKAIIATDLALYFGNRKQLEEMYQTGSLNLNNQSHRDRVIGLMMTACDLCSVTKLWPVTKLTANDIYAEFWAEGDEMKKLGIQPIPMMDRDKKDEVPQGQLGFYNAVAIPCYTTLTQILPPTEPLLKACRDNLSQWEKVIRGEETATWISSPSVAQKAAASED

Usually IC50 stands for the concentration needed to halve the response being measured. As to `CC(=O)C1=C(c2ccc(C#N)cc2)C(=O)NC1=O` [Compound 1], the half-inhibitory concentration (IC50) in experiment [1] was 4.6 µM.
As usually defined, the inhibition is the percentage by which the read-out fell short of the control. Take `O=C(Cc1ccccc1)Sc1ncnc2[nH]cnc12` [Compound 2]: the inhibition at 10 µM in experiment [1] was determined as 40%.
Turning to `O=C(O)COC(=O)CNC(=O)c1ccccc1` [Compound 3], the inhibition at 10 µM in experiment [1] came to 7%.
In the case of `CC(=O)C1=C(c2c[nH]c3ccccc23)C(=O)NC1=O` [Compound 4], in experiment [1], the IC50 worked out at 10.2 µM. In experiment [2], the nitrite production entry is “significantly decreased”.
`COc1ccc(-c2n/c(=N/Cc3cccnc3)sn2-c2ccccc2)cc1` [Compound 5]: in experiment [1], the IC50 was determined as 1.8 µM. Further, the nitrite production entry in experiment [2] is “significantly decreased”.
On to `CC(=O)C1=C(c2c[nH]c3ncccc23)C(=O)NC1=O` [Compound 7], for which the IC50 in experiment [1] is 8.2 µM.
As for `Cc1ccc(-n2nc(C(C)(C)C)cc2N)cc1` [Compound 9], in experiment [1], the inhibition at 10 µM was 3%.
Consider `CC(=O)NNC(=O)c1c(O)n(C)c2ccccc2c1=O` [Compound 10], for which the inhibition at 10 µM in experiment [1] was 2%.
For the compound `O=C(Cc1cccc(Cl)c1)Nc1nc2ccccc2s1` [Compound 11], the inhibition at 10 µM in experiment [1] is 44%.
Same read-out and setting: the result for `O=S1(=O)N=C(O)c2cc(-c3ccccc3)sc2N1` [Compound 12] reads 3%.
Regarding `O=Cc1nc(-c2ccc(Cl)cc2)ns1` [Compound 13], the inhibition at 10 µM in experiment [1] was determined as 15%.
As for `CC(=O)C1=C(c2c(C)[nH]c3ccccc23)C(=O)NC1=O` [Compound 14], the inhibition at 10 µM in experiment [1] was found to be 24%.
For `CC(=O)C1=C(c2cn(C)c3ncccc23)C(=O)NC1=O` [Compound 15], the IC50 in experiment [1] was 6.5 µM.
The same measure, in the same setting: under `O=C(CBr)C1=C(c2c[nH]c3ccccc23)C(=O)NC1=O` [Compound 16] stands 2.4 µM; under `CC(=O)C1=C(c2cn(C)c3ccccc23)C(=O)NC1=O` [Compound 17], 8.2 µM.
As to `Cn1cc(C2=C(C(=O)CBr)C(=O)NC2=O)c2ccccc21` [Compound 18], the half-inhibitory concentration (IC50) in experiment [1] came out at 2.9 µM.
For `COc1ccc(Cc2nccc3cc(OC)c(OC)cc23)cc1OC` [Papaverine], the 50% inhibitory concentration (IC50) in experiment [3] is 0.019 µM.
